Assay results from patent US20120046246A1, “METHODS FOR TREATING OSTEOCLAST-RELATED DISEASE, COMPOUNDS AND COMPOSITIONS THEREOF” (University of Florida Research Foundation, priority 2008, published 2012).

What was measured:
GW bodies = experiment: GW body formation; type: cell-based, mouse
Method: GW bodies: GW bodies have been reported to be correlated with miRNA activity (Pauley, K. M., et al. EMBO Rep. 2006, 7:904-910; Lian, S., et al. Cell Cycle 2006, 5:242-245). Enoxacin, an enhancer of miRNA activity, is predicted to increase the number of GW bodies present and/or increase the size of GW bodies. To test whether enoxacin affects GW body formation, calcitriol-stimulated mouse marrow cultures, RANKL-stimulated primary hematopoietic cells and primary calvarial osteoblasts are treated with enoxacin. A dose response curve using doses above and below the IC50 dose is performed for inhibition of osteoclast formation and bone resorption. Osteoclast formation, staining and enumerating TRAP+ cells, and ruffled membrane formation are examined, by treating preformed osteoclasts on bone slices. Cells are fixed at various time points after treatment with enoxacin, and stain with polyclonal antibody against GW bodies and monoclonal anti-DCP1. The number of GW bodies in at least 100 randomly sampled cells is counted. The number of GW bodies is divided by the number of nuclei/cell, as determined by counting DAPI stained nuclei. This experiment is repeated in triplicate. Counts are performed by pre-calibrated assistants who are blinded to the nature of the experiment. Images are taken using a Zeiss Axiovert 200 M microscope and a Zeiss AxioCam MRm camera using the 40×0.75 NA objective.

[1] = test system: ovariectomized (OVX) rats; experiment: ovariectomized (OVX) rat model; type: in vivo; details: oral daily, 6 weeks
Method: Enoxacin is tested in ovariectomized (OVX) rats that lose bone in a manner similar to that of postmenopausal women. This model has been widely and successfully utilized as an early pre-clinical model for osteoporotic disease (Pun, S., et al. Bone, 2000, 27:197-202; Wronski, T. J., et al. Endocrinology, 1993, 132:823-831; Wronski, T. J., et al. Endocrinology, 1988, 123:681-686; Iwaniec, U. T., et al. Endocrinology, 2002, 143:2515-2526). In this study, the effects of systemic administration of enoxacin are examined.
In this study, ligands identified that block V-ATPase/F-actin interactions and bone resorption in vitro are advanced to in vivo testing in OVX rats. Female Sprague Dawley rats are subjected to sham surgery or ovariectomized at 3 months of age (see the preceding references). On the day after surgery, groups of sham operated control and OVX rats are injected subcutaneously (SC) with vehicle or treated with vehicle via oral gavage. A second group of OVX rats are injected SC 3 days/week with 17β-estradiol (Sigma, St. Louis, Mo.) at a dose of 10 μg/kg to inhibit bone resorption and prevent cancellous bone loss. The animals are treated orally with daily doses of enoxacin including 10, 100 and 400 mg/kg body weight. Each group consist of 10 rats. […] Due to the potential for enoxacin to affect intestinal flora, rats are weighed weekly and closely monitored for weight loss and diarrhea. […]

[2] = test system: mature osteoclasts on bone slices; experiment: ruffled membrane formation / V-ATPase trafficking in mature osteoclasts on bone slices (anti-E subunit antibody); type: cell-based
Method: FIG. 7 depicts that enoxacin (10 μM) blocks ruffled membrane formation. Mature osteoclasts on bone slices were treated with enoxacin or vehicle control for 3 days, then fixed and labeled with an anti-E subunit antibody. […] Arrows point to representative osteoclasts; The present inventors also tested the effects of enoxacin on osteoclasts that were already mature and loaded onto bone slices. In this experiment, mature osteoclasts on bone slices were treated with enoxacin or vehicle control for 3 days, then fixed and labeled with an anti-E subunit antibody. Control osteoclasts produced many ruffled membranes.

[3] = target: T1, V-ATPase interaction with microfilaments (F-actin) (Mus musculus, UniProt P62814); experiment: immunoprecipitation of V-ATPase from soluble osteoclast extracts; details: control extracts treated after homogenization, prior to immunoprecipitation
T1 construct: endogenous in cells; host or cells: primary mouse marrow osteoclasts (RANKL-differentiated)
T1 sequence (P62814 whole entry): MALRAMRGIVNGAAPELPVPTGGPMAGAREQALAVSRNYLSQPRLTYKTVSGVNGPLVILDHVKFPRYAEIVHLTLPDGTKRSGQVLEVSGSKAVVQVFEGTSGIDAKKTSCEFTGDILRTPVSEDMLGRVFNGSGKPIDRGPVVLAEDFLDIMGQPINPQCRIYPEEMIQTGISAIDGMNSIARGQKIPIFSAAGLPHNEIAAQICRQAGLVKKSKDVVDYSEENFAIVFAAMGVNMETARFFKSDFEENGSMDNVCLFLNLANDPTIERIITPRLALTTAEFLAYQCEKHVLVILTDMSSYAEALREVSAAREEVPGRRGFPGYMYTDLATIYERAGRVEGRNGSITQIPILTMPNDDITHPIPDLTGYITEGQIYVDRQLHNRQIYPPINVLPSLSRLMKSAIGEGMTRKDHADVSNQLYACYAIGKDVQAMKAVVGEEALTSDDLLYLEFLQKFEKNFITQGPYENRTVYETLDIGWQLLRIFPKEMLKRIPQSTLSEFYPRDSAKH
Method: Immunoprecipitations: To further test whether enoxacin disrupts the capacity of V-ATPase to interact with microfilaments, immunoprecipitations are performed from soluble extracts of osteoclasts that had been treated with enoxacin or vehicle control using anti-E subunit and anti-a3 subunit antibodies developed by the present inventors (Zuo, J., et al. J. Bone Miner. Res. 2006, 21:714-721; Lee, B. S., et al. J. Bone Miner. Res., 1999, 14:2127-2136). It is expected that treatments of control extracts with enoxacin after cells are homogenized, but prior to immunoprecipitation, reduces the amount of F-actin attached to the immunoprecipitated V-ATPase.

[4] = target: T2, interaction between recombinantly-expressed B2 subunit and pure rabbit muscle F-actin (Homo sapiens, UniProt P21281); experiment: pelleting assay of B subunit binding to F-actin; details: 100 uM inhibitor compound; recombinant B subunit 1 μM, F-actin 2 μM; densitometry of SDS-PAGE gels; read-out: % inhibition
T2 construct: made in house
T2 sequence (P21281 whole entry): as the sequence (P62814 whole entry) above, with M25A, A26V, K460R, T464A, Y474F counted along it
Method: Twenty-one small molecules are tested for their ability to block interaction between recombinantly-expressed B2 subunit and pure rabbit muscle F-actin.
Recombinant B subunit (1 μM) plus/minus F-actin (2 μM)) plus/minus 100 uM inhibitor compounds were incubated for 10 minutes in 20 mM Tris/HCl (pH 7.5), 100 mM NaCl, 1 mM MgCl2, 0.2 mM CaCl2, 0.5 mM ATP, 0.2 mM DTT, then subjected to ultracentrifugation at 180,000×g for 45 min. Supernatants and pellets were collected in SDS-PAGE sample buffer, separated by SDS-PAGE, stained with Coomassie Blue, and densitometry was performed using a Flurchem 8000 (Alpha Innotech, San Leandro Calif.).
The percent inhibition was determined by densitometry of SDS-PAGE gels. The raw densitometric number obtained of the recombinant B subunit band that was pelleted with F-actin, but with no compound present, represented 0% inhibition. The amount of the raw densitometric number of the amount of recombinant B subunit that pelleted with no actin present, but with compound, represented 100% inhibition. The amount of recombinant B subunit that pelleted with actin and the compound being tested was placed as a percentage assuming a linear response.

[5] = test system: osteoclast formation in calcitriol-stimulated mouse marrow cultures; experiment: osteoclastogenesis stimulated by calcitriol in mouse marrow cultures; type: cell-based
Method: Enoxacin and Binhib 2 were then tested for their effects on osteoclastogenesis stimulated by calcitriol in mouse marrow cultures. The mixed cultures represent a model for the complex interactions that regulate bone resorption in vivo. […] Osteoclast and osteoblast-containing mouse bone marrow cultures are obtained as above described. 4-6-week-old Swiss-Webster mice (Harlan, Indianapolis, Ind.) are sacrificed by cervical dislocation. Femurs and tibias are dissected free of adherent tissue; the marrow is expelled by cutting both bone ends and flushing the marrow cavity with MEM D10 using a 25-gauge needle. The marrow cells are washed twice and plated in 6 well plates at a concentration of 1×10^6 nucleated cells/cm^2 in MEM D1 0 containing 10 nM calcitriol. Cultures are fed on the third and fifth day of culture by replacing half of the medium with fresh medium containing calcitriol. Cultures are treated with enoxacin at 10 μM or vehicle control on Day 1, and when the media is refreshed.

osteoblast formation = osteoblast formation in mouse marrow cultures, judged by alkaline phosphatase expressing cells; type: cell-based; details: 1-10 μM
Method: Enoxacin and Binhib 2 were then tested for their effects on osteoclastogenesis stimulated by calcitriol in mouse marrow cultures. The mixed cultures represent a model for the complex interactions that regulate bone resorption in vivo.
In addition, at 1-10 μM enoxacin, osteoclast formation was inhibited while osteoblast formation, judged by alkaline phosphatase expressing cells, was not affected. And, at level of 100 μM, enoxacin blocked 90% of the B subunit from binding F-actin.

[6] = test system: osteoclast formation in mouse marrow cultures; experiment: TRAP staining of mouse marrow cultures treated with bis-enoxacin; type: cell-based; design: unit of the concentration uncertain; details: 1 (unit uncertain)0 mM; 6 Days; TRAP positive cells
Method: Mouse marrow cultures were treated with bis-enoxacin at the concentrations of 5 mM, 10 mM, 25 mM, 50 mM, and 100 mM respectively, for 6 Days in wells of a 24-well plate. The cells were fixed and stained for tartrate-resistant acid phosphatase (TRAP) activity which is a marker for osteoclasts. The number of TRAP positive mononuclear, multinuclear (2-10 nuclei) and giant (>10 nuclei) were counted.

mouse marrow osteoclasts = experiment: actin ring count on bone slices pre-treated with bis-enoxacin; type: cell-based; details: bone slices pre-treated at 10 mM and 1 mM; 3 Days of culture
Method: Bone slices were incubated with bis-enoxacin at the concentrations of 10 mM and 1 mM respectively. After a 1 Day incubation, the slices were washed 4 times over a period of 24H. Mouse marrow osteoclasts were then plated on the slices, and after 3 Days of culture the cells were fixed and the number of actin rings (a marker for active osteoclasts) was counted.

[7] = test system: mouse marrow osteoclasts on bone slices; experiment: bone resorption pitting quantified by scanning electron microscopy; type: cell-based; design: dose or concentration left out as unconfirmed; details: 5 Days
Method: Mouse marrow osteoclasts were grown to maturity for 5 Days then scraped and plated on bone slices treated with bis-enoxacin at the concentrations of 30 mM, 10 mM and 1 mM respectively. After 5 Days, the cells were removed and pitting was quantified by scanning electron microscopy.

Row | SMILES | number and/or size of GW bodies (GW bodies) | ruffled membranes of osteoclasts along the bone surface [1] | V-ATPase trafficking to ruffled membranes in mature osteoclasts ([2]; 10 μM) | ruffled membrane formation ([2]; 10 μM, 3 days) | ruffled membrane formation ([2]; concentration not given) | E subunit labeling distribution ([2]; mature osteoclasts on bone slices, 3 days) | amount of F-actin attached to the immunoprecipitated V-ATPase [3] | inhibition at 100 µM [4] | formation of osteoclasts ([5]; 1 μM) | osteoclast formation ([5]; 1-10 μM) | IC50 ([5]; Osteoclast, calcitriol-stimulated mouse marrow cultures) | osteoclast formation ([5]; concentration not given) | osteoclast formation ([5]; single dose at the onset of the marrow culture period, end of 7 Days) | osteoblast formation, judged by alkaline phosphatase expressing cells (osteoblast formation) | effects on osteoclast formation compared with enoxacin [6] | reduction of actin ring numbers (mouse marrow osteoclasts) | bone resorption compared to control [7]
1 | CCn1cc(C(=O)O)c(=O)c2cc(F)c(N3CCNCC3)nc21 [enoxacin, 1-ethyl-6-fluoro-4-oxo-7-(piperazin-1-yl)-1,4-dihydro-1,8-naphthyridine-3-carboxylic acid] | increase | does not have ruffled membranes | completely inhibited | blocks | disrupted | perinuclear distribution | reduces | 92% | significantly reduced | inhibited | 1000 nM | inhibits | dramatic reductions | not affected | – | – | –
2 | CCn1cc(C(=O)O)c(=O)c2cc(F)c(N3CCN(CC(P(=O)(O)O)P(=O)(O)O)CC3)nc21 [bis-enoxacin, 7-(4-(2,2-Diphosphonoethyl)piperazin-1-yl)-1-ethyl-6-fluoro-4-oxo-1,4-dihydro-1,8-naphthyridine-3-carboxylic acid] | – | – | – | – | – | – | – | – | – | – | – | – | – | – | identical effects | approximately 60% | reduced
